Experimental data: ChEMBL document CHEMBL4011601, “Synthesis and molecular docking studies of new furochromone derivatives as p38α MAPK inhibitors targeting human breast cancer MCF-7 cells” (Bioorg Med Chem, 2017)

Legend:
[1] = test system: MCF7; test: Antiproliferative activity against human MCF7 cells after 3 days by MTT assay; format: functional, cell-based; settings: MCF7, 72 h
[2] = target: MAP kinase p38 (Homo sapiens, UniProt O15264+Q15759+Q16539+P53778); test: Inhibition of p38 MAPK (unknown origin) using ATF2 as substrate measured after 15 by ELISA
[3] = test system: MCF7; test: Potency index, ratio of Doxorubicin IC50 to compound IC50 against human MCF7 cells; format: functional
[4] = test system: MCF7; test: Induction of apoptosis in human MCF7 cells assessed as viable cells after 24 hrs by Annexin-V/propidium iodide staining based FACS analysis (reference value: 92.7%); format: functional
[5] = test system: MCF7; test: Induction of apoptosis in human MCF7 cells assessed as early apoptotic cells after 24 hrs by Annexin-V/propidium iodide staining based FACS analysis (reference value: 2.7%); format: functional
[6] = test system: MCF7; test: Induction of apoptosis in human MCF7 cells assessed as late apoptotic cells after 24 hrs by Annexin-V/propidium iodide staining based FACS analysis (reference value: 4.3%); format: functional
[7] = test system: MCF7; test: Induction of apoptosis in human MCF7 cells assessed as necrotic cells after 24 hrs by Annexin-V/propidium iodide staining based FACS analysis (reference value: 0.3%); format: functional
[8] = test system: MCF7; test: Cell cycle arrest in human MCF7 cells assessed as accumulation at G1 phase after 24 hrs by propidium iodide staining-based flow cytometric method (reference value: 67.2%); format: functional
[9] = test system: MCF7; test: Cell cycle arrest in human MCF7 cells assessed as accumulation at G2 phase after 24 hrs by propidium iodide staining-based flow cytometric method (reference value: 6.4%); format: functional
[10] = test system: MCF7; test: Cell cycle arrest in human MCF7 cells assessed as accumulation at S phase after 24 hrs by propidium iodide staining-based flow cytometric method (reference value: 25.1%); format: functional
[11] = test system: MCF7; test: Induction of apoptosis in human MCF7 cells assessed as increase in caspase9 level at 0.007 uM after 24 hrs by ELISA; format: functional
[12] = test system: MCF7; test: Induction of apoptosis in human MCF7 cells assessed as increase in caspase3 level at 0.007 uM after 24 hrs by ELISA; format: functional

Structure (SMILES): COc1ccc(-c2cc(-c3c(C)oc4c(OC)c5occc5c(OC)c4c3=O)nc(=O)[nH]2)cc1OC
- IC50 [1]: 80 nM

Structure (SMILES): COc1c2occc2c(OC)c2c(=O)c(-c3cc(-c4ccc(F)cc4)c(C#N)c(=N)[nH]3)c(C)oc12
- IC50 [1]: 20 nM
- IC50 [2]: 630 nM

Structure (SMILES): COc1ccc(-c2cc(-c3c(C)oc4cc5occc5c(OC)c4c3=O)[nH]c(=N)c2C#N)cc1OC
- IC50 [1]: 50 nM
- IC50 [2]: 720 nM

Structure (SMILES): COc1c2occc2c(OC)c2c(=O)c(-c3cc(-c4ccc(F)cc4)[nH]c(=O)n3)c(C)oc12
- IC50 [1]: 80 nM

Structure (SMILES): COc1c2occc2c(OC)c2c(=O)c(C3=CC(c4ccc(F)cc4)NO3)c(C)oc12 (centres undefined)
- IC50 [1]: 40 nM
- IC50 [2]: 860 nM

Structure (SMILES): COc1c2occc2c(OC)c2c(=O)c(C3=CC(c4ccc(F)cc4)=C4C(N)=NC=NC4N3)c(C)oc12 (centres undefined)
- IC50 [1]: 170 nM
- Ratio IC50 [3]: 3.6

Structure (SMILES): COc1c2occc2c(OC)c2c(=O)c(C3=NN(C(C)=O)C(c4ccc(F)cc4)C3)c(C)oc12 (centres undefined)
- IC50 [1]: 150 nM

Structure (SMILES): COc1ccc(C2C=C(c3c(C)oc4c(OC)c5occc5c(OC)c4c3=O)ON2)cc1OC (centres undefined)
- IC50 [1]: 50 nM
- IC50 [2]: 1090 nM

Structure (SMILES): COc1c2occc2c(OC)c2c(=O)c(-c3cc(-c4ccc(F)cc4)c(C#N)c(=O)[nH]3)c(C)oc12
- IC50 [1]: 100 nM
- Ratio IC50 [3]: 6

Structure (SMILES): COc1ccc(C2CC(c3c(C)oc4c(OC)c5occc5c(OC)c4c3=O)=NN2C(C)=O)cc1OC (centres undefined)
- IC50 [1]: 7 nM
- IC50 [2]: 670 nM
- Activity [4]: 64.1%
- Activity [5]: 17.4%
- Activity [6]: 15.2%
- Activity [7]: 3.3%
- Activity [8]: 31.2%
- Activity [9]: 21.2%
- Activity [10]: 24.3%
- Activity [11]: 16.39 ng/mL
- Activity [12]: 446.6 ng/mL

Structure (SMILES): COc1c2occc2c(OC)c2c(=O)c(C3=NN(c4ccccc4)C(c4ccc(F)cc4)C3)c(C)oc12 (centres undefined)
- IC50 [1]: 40 nM
- IC50 [2]: 1090 nM

Structure (SMILES): COc1ccc(-c2cc(-c3c(C)oc4c(OC)c5occc5c(OC)c4c3=O)[nH]c(=N)c2C#N)cc1OC
- IC50 [1]: 10 nM
- IC50 [2]: 310 nM

Structure (SMILES): COc1ccc(-c2cc(-c3c(C)oc4cc5occc5c(OC)c4c3=O)[nH]c(=O)c2C#N)cc1OC
- IC50 [1]: 140 nM

Structure (SMILES): COc1c2ccoc2cc2oc(C)c(-c3cc(-c4ccc(F)cc4)c(C#N)c(=O)[nH]3)c(=O)c12
- IC50 [1]: 30 nM
- IC50 [2]: 230 nM

Structure (SMILES): COc1c2occc2c(OC)c2c(=O)c(-c3cc(-c4ccc(F)cc4)[nH]c(=S)n3)c(C)oc12
- IC50 [1]: 20 nM
- IC50 [2]: 380 nM

Structure (SMILES): COc1c2ccoc2cc2oc(C)c(-c3cc(-c4ccc(F)cc4)c(C#N)c(=N)[nH]3)c(=O)c12
- IC50 [1]: 40 nM
- IC50 [2]: 190 nM

Structure (SMILES): COc1ccc(-c2cc(-c3c(C)oc4c(OC)c5occc5c(OC)c4c3=O)nc(=S)[nH]2)cc1OC
- IC50 [1]: 50 nM
- IC50 [2]: 1390 nM
